From patent US9597406B2, “Controlled release method for a pharmaceutical composition composed of chelating complex micelles” (Original BioMedicals Co., Ltd, priority 2012, dated 2017)

Assays:
[1] = MTT cell viability test of doxorubicin CCM (FePD) with and without deferoxamine; format: cell-based, mouse; settings: mouse, BNLCL.2 mouse embryonic liver cells, 2 h incubation, BNLCL.2 cells
Experimental: (§1) The cell viability test of doxorubicin CCM (FePD) was examined with and without adding metal chelator deferoxamine. MTT (3-(4,5-cimethylthiazol-2-yl)-2,5-diphenyl tetrazolium bromide) assay was used to assess the cytotoxicity of cells treated with FePD and deferoxamine.
(§2) The mouse embryonic liver cells (BNLCL.2) (100 μL) were inoculated onto a 96-well plate with density 1×10^5 cells/mL and cultured for 24 hr at 37° C. with 5% CO2 before subjecting to the test. After removal of supernatant, 100 μL of each sample was added to the cells and incubated for 2 hours (Table 1). The samples were sterilized by using 0.22 μm filters prior to treating the cells. The plate was then washed with PBS (phosphate buffered saline) and incubated with fresh medium for 24 hours. After removal of supernatant and washed with PBS, 10 μL MTT solution was added to the cells and incubated for 4 hours. The absorbance at 570 nm was measured (BioTek, Synergy TM2, USA).

[2] = test system: mouse embryonic liver cells (BNLCL.2); assay: as above; format: cell-based; settings: 4 μM, 2 h incubation, then 24 h fresh medium, BNLCL.2 cells, 4 µM
Experimental: as §1, §2

Compound | viability at 2 h, 13.5 µM ([1]; 13.5 μM, then 24 h fresh medium) [%] | Cell viability (%) [2] [%] | viability at 2 h, 4 μM ([1]; 4 μM, then 24 h fresh medium) [%] | viability at 2 h, 4 μM ([1]; Group G: 4 μM + deferoxamine (13.5 μM)) [%]
CC(=O)N(O)CCCCCNC(=O)CCC(=O)N(O)CCCCCNC(=O)CCC(=O)N(O)CCCCCN [deferoxamine] | 104 | – | – | –
COc1cccc2c1C(=O)c1c(O)c3c(c(O)c1C2=O)C[C@@](O)(C(=O)CO)C[C@@H]3O[C@H]1C[C@H](N)[C@H](O)[C@H](C)O1 [doxorubicin] | – | 74.7292 | 74.7 | 78.3
